Where two headings read alike, the source gives them in different places.
Experiments:
Assay in all cases: Kinase binding screen
Conditions in all cases: read-out: Percent Control at 100 nM Compound Concentration
[1] = target: FGFR4 (Homo sapiens (Human), UniProt P22455)
[2] = target: CDKL3 (Homo sapiens (Human), UniProt Q8IVW4)
[3] = target: LATS1 (Homo sapiens (Human), UniProt O95835)
[4] = target: LATS2 (Homo sapiens (Human), UniProt Q9NRM7)
[5] = target: MRCKB (Homo sapiens (Human), UniProt Q9Y5S2)
[6] = target: ERK4 (Homo sapiens (Human), UniProt P31152)
[7] = target: STK16 (Homo sapiens (Human), UniProt O75716)
STK16, sequence (O75716 whole entry): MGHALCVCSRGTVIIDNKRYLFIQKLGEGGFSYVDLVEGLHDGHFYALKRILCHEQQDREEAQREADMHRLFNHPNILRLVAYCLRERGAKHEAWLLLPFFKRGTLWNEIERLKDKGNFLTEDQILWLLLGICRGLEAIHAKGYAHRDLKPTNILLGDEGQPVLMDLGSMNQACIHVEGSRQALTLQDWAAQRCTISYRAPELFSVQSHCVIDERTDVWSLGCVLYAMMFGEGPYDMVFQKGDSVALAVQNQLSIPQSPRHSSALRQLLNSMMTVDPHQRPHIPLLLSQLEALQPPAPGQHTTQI

[8] = target: PIM1 (Homo sapiens (Human), UniProt P11309)
PIM1, sequence (P11309 whole entry): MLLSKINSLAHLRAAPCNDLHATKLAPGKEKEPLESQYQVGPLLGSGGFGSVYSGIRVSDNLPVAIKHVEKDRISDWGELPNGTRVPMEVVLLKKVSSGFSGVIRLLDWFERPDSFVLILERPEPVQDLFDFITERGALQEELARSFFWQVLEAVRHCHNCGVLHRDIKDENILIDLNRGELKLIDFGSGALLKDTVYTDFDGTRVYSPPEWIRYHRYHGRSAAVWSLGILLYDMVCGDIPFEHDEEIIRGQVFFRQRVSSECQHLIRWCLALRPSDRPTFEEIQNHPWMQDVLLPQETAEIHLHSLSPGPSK

[9] = target: FGFR3(G697C) (Homo sapiens (Human), UniProt P22607, G697C)
[10] = target: TAK1 (Homo sapiens (Human), UniProt O43318)
[11] = target: RPS6KA5(Kin.Dom.1-N-terminal) (Homo sapiens (Human), UniProt O75582)
[12] = target: BIKE (Homo sapiens (Human), UniProt Q9NSY1)
BIKE, sequence (Q9NSY1 whole entry): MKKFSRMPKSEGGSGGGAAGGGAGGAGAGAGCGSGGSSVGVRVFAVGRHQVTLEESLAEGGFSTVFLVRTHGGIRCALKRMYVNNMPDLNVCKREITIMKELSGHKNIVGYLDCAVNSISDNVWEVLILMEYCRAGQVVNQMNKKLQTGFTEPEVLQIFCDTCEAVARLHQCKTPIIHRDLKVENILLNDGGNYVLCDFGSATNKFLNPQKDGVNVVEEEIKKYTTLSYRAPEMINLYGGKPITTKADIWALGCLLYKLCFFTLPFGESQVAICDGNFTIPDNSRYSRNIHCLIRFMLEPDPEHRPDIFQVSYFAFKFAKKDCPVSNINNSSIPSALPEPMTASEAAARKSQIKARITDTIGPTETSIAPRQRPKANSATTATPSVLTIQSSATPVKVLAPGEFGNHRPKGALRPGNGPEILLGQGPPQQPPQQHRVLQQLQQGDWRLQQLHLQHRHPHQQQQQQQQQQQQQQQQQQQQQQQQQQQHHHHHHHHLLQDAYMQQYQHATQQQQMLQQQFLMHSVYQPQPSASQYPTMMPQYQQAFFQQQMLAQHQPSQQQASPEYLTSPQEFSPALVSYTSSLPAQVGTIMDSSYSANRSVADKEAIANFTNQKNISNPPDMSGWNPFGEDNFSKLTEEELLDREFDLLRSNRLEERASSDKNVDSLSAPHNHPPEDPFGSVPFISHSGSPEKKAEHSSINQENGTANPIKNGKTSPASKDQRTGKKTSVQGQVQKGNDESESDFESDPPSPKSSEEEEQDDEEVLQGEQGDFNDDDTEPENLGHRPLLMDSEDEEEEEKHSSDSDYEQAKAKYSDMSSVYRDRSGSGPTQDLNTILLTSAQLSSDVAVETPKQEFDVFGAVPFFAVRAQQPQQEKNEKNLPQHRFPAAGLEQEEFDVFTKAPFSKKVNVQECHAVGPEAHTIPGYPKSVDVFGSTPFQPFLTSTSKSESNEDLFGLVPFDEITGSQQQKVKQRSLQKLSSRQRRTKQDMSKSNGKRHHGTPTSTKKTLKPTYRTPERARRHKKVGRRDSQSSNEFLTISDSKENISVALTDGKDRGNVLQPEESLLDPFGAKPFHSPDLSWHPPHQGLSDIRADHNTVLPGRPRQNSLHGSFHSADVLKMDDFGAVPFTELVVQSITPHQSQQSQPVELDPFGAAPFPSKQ

[13] = target: DDR2 (Homo sapiens (Human), UniProt Q16832)
[14] = target: CAMK2A (Homo sapiens (Human), UniProt Q9UQM7)
[15] = target: CLK4 (Homo sapiens (Human), UniProt Q9HAZ1)
CLK4, sequence (Q9HAZ1 whole entry): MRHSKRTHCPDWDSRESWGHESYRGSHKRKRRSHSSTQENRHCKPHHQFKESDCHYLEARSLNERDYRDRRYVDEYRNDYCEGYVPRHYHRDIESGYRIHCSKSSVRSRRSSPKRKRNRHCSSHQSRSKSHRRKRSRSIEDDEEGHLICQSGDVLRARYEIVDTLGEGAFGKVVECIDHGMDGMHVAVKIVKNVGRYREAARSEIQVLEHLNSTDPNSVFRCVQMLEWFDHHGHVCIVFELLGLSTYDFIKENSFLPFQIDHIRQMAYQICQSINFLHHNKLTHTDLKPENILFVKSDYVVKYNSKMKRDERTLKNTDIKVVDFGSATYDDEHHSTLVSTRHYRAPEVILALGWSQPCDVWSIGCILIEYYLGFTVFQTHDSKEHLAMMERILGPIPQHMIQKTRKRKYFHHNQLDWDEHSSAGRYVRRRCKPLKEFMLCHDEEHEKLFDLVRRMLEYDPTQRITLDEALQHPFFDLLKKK

[16] = target: FER (Homo sapiens (Human), UniProt P16591)
[17] = target: ACVR1B (Homo sapiens (Human), UniProt P36896)
ACVR1B, sequence (P36896 24-505): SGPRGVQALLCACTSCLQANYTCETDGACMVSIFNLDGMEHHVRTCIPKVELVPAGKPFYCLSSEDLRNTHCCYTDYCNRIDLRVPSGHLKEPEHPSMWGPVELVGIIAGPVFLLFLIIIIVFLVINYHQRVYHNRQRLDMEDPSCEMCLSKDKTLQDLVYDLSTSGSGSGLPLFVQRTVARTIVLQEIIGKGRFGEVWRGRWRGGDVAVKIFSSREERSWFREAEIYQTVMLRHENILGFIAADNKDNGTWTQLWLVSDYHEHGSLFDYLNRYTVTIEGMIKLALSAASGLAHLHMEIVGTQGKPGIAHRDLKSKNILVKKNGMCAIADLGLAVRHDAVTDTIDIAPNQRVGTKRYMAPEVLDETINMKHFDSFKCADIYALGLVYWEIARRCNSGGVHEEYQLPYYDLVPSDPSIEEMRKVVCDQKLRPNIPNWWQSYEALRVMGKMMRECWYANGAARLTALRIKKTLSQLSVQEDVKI

[18] = target: CSNK1D (Homo sapiens (Human), UniProt P48730)
[19] = target: ICK (Homo sapiens (Human), UniProt Q9UPZ9)
[20] = target: HUNK (Homo sapiens (Human), UniProt P57058)
[21] = target: MYLK4 (Homo sapiens (Human), UniProt Q86YV6)
[22] = target: FLT3-autoinhibited (Homo sapiens (Human), UniProt P36888)
FLT3-autoinhibited, sequence (P36888 564-993 limits assumed): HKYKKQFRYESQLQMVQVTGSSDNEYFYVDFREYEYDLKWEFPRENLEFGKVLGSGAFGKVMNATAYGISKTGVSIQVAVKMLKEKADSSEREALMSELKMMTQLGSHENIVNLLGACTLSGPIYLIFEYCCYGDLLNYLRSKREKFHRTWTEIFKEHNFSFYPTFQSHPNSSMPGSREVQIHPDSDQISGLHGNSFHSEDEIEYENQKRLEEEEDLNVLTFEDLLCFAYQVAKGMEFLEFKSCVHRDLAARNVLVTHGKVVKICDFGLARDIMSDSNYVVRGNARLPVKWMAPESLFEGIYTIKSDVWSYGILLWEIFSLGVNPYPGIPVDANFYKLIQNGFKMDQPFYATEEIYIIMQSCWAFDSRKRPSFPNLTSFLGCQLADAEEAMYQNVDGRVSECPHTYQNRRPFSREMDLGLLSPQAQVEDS

[23] = target: EIF2AK1 (Homo sapiens (Human), UniProt Q9BQI3)
[24] = target: SIK (Homo sapiens (Human), UniProt P57059)
SIK, sequence (P57059 whole entry): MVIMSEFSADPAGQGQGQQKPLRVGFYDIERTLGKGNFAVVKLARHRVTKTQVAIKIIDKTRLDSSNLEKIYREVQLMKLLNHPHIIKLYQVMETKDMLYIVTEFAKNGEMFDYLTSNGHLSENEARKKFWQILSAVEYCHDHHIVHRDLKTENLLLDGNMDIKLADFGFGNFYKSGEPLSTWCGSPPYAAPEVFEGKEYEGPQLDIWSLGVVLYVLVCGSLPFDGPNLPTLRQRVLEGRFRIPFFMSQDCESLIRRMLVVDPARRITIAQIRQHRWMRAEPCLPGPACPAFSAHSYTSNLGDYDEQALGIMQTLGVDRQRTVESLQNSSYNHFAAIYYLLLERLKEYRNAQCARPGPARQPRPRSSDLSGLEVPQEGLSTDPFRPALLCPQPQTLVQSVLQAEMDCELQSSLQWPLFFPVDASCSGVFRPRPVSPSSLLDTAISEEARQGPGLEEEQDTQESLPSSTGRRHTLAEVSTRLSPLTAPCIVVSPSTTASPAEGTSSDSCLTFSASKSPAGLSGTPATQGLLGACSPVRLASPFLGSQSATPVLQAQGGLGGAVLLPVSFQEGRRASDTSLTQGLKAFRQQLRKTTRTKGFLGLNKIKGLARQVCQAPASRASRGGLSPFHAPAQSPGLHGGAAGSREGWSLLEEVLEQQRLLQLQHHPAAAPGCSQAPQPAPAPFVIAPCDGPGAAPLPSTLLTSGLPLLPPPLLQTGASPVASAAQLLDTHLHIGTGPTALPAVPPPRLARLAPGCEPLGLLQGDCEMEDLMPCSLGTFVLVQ

[25] = target: PIP5K2B (Homo sapiens (Human), UniProt P78356)
[26] = target: TIE2 (Homo sapiens (Human), UniProt Q02763)
[27] = target: CDK3 (Homo sapiens (Human), UniProt Q00526)
[28] = target: WEE2 (Homo sapiens (Human), UniProt P0C1S8)
[29] = target: RET(M918T) (Homo sapiens (Human), UniProt P07949, M918T)

LATS2, sequence (Q9NRM7 whole entry): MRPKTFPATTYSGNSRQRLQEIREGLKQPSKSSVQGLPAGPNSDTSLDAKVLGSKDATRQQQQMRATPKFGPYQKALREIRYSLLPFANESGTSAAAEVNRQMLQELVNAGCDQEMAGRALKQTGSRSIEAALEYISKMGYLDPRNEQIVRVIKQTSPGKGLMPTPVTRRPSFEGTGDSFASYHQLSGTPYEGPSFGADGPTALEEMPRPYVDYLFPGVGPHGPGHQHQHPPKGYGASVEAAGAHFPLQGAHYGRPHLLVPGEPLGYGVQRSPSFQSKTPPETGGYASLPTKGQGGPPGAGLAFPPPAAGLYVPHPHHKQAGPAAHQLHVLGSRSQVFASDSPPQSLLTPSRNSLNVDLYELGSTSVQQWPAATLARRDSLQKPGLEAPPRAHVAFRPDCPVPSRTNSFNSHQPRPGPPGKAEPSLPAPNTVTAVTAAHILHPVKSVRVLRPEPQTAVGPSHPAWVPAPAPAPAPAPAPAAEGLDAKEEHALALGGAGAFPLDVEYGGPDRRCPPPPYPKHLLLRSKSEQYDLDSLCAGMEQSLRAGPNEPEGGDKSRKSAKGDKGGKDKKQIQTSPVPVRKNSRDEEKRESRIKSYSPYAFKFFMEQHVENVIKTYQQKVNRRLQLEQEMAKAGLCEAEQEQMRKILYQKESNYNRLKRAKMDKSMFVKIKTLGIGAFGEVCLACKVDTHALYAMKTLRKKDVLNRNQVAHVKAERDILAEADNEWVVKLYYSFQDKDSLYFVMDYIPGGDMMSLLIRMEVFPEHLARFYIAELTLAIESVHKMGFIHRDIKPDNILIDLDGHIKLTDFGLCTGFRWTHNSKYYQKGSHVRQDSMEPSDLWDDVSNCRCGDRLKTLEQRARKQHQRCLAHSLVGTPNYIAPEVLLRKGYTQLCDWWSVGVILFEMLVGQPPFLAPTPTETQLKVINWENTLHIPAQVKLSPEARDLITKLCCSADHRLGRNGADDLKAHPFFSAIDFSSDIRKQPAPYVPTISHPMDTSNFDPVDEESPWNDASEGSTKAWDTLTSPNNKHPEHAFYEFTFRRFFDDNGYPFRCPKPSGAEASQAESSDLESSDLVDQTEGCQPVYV

For `CN(C[C@@H](O)Cc1ccccc1)C(=O)c1cncc(C#Cc2cnn(C(F)F)c2)c1` [Example 2, (S)-5-((1-(difluoromethyl)-1H-pyrazol-4-yl)ethynyl)-N-(2-hydroxy-3-phenylpropyl)-N-methylnicotinamide], the remaining activity at 0.1 µM ([1]; FGFR4) was 100%, the remaining activity at 0.1 µM ([2]; CDKL3) was 100% and the remaining activity at 0.1 µM ([3]; LATS1) was 100%. The remaining activity at 0.1 µM ([4]; LATS2) was 98%, the remaining activity at 0.1 µM ([5]; MRCKB) was 95% and the remaining activity at 0.1 µM ([6]; ERK4) was 100%. It also gave a remaining activity at 0.1 µM ([7]; STK16) of 98%, a remaining activity at 0.1 µM ([8]; PIM1) of 98% and a remaining activity at 0.1 µM ([9]; FGFR3(G697C)) of 100%. For the same compound, the remaining activity at 0.1 µM ([10]; TAK1) was 97%, the remaining activity at 0.1 µM ([11]; RPS6KA5(Kin.Dom.1-N-terminal)) was 91% and the remaining activity at 0.1 µM ([12]; BIKE) was 100%. The remaining activity at 0.1 µM ([13]; DDR2) was 100%, the remaining activity at 0.1 µM ([14]; CAMK2A) was 97% and the remaining activity at 0.1 µM ([15]; CLK4) was 92%. For the same compound, the remaining activity at 0.1 µM ([16]; FER) was 100%, the remaining activity at 0.1 µM ([17]; ACVR1B) was 100% and the remaining activity at 0.1 µM ([18]; CSNK1D) was 100%. It also gave a remaining activity at 0.1 µM ([19]; ICK) of 100%, a remaining activity at 0.1 µM ([20]; HUNK) of 82% and a remaining activity at 0.1 µM ([21]; MYLK4) of 99%. The remaining activity at 0.1 µM ([22]; FLT3-autoinhibited) was 95%, the remaining activity at 0.1 µM ([23]; EIF2AK1) was 100% and the remaining activity at 0.1 µM ([24]; SIK) was 100%. For the same compound, the remaining activity at 0.1 µM ([25]; PIP5K2B) was 100%, the remaining activity at 0.1 µM ([26]; TIE2) was 100% and the remaining activity at 0.1 µM ([27]; CDK3) was 100%. It also gave a remaining activity at 0.1 µM ([28]; WEE2) of 100% and a remaining activity at 0.1 µM ([29]; RET(M918T)) of 100%.
Compound `CN(C[C@H](Cc1ccccc1)OP(=O)(O)O)C(=O)c1cncc(C#Cc2cnn(C(F)F)c2)c1` [Example 19, (S)-1-(5-((1-(difluoromethyl)-1H-pyrazol-4-yl)ethynyl)-N-methylnicotinamido)-3-phenylpropan-2-yl dihydrogen phosphate] has a remaining activity at 0.1 µM [1] of 100%, a remaining activity at 0.1 µM [2] of 97% and a remaining activity at 0.1 µM [3] of 88%. For the same compound, the remaining activity at 0.1 µM [4] was 100%, the remaining activity at 0.1 µM [5] was 100% and the remaining activity at 0.1 µM [6] was 100%. The remaining activity at 0.1 µM [7] was 92%, the remaining activity at 0.1 µM [8] was 100% and the remaining activity at 0.1 µM [9] was 100%. For the same compound, the remaining activity at 0.1 µM [10] was 95%, the remaining activity at 0.1 µM [11] was 100% and the remaining activity at 0.1 µM [12] was 100%. The remaining activity at 0.1 µM [13] was 100%, the remaining activity at 0.1 µM [14] was 100% and the remaining activity at 0.1 µM [15] was 100%. The remaining activity at 0.1 µM [16] was 96%, the remaining activity at 0.1 µM [17] was 100% and the remaining activity at 0.1 µM [18] was 100%. The remaining activity at 0.1 µM [19] was 93%, the remaining activity at 0.1 µM [20] was 96% and the remaining activity at 0.1 µM [21] was 100%. It also gave a remaining activity at 0.1 µM [22] of 96%, a remaining activity at 0.1 µM [23] of 96% and a remaining activity at 0.1 µM [24] of 100%. The remaining activity at 0.1 µM [25] was 95%, the remaining activity at 0.1 µM [26] was 88% and the remaining activity at 0.1 µM [27] was 100%. For the same compound, the remaining activity at 0.1 µM [28] was 100% and the remaining activity at 0.1 µM [29] was 100%.

Reference: patent US11767310B2, “Nicotinamide RIPK1 inhibitors” (AbbVie Inc., priority 2021, dated 2023)
